In US8940748B2, “Iminothiadiazine dioxide compounds as BACE inhibitors, compositions, and their use” (Merck Sharp & Dohme Corp., priority 2009, dated 2015):
Where two headings read alike, the source gives them in different places. Blank lines part the entries; values can stand above or below the compound they belong to.

Assays:
[1] = Caco-2 bi-directional permeability; assay type: in vitro ADME; conditions: human, Caco-2; permeability apical to basolateral; read-out: Caco-2 AP→BL
Experimental: (§1) The bi-directional permeability with efflux potential of selected compounds of the invention vs. otherwise structurally identical iminopyrimidinones (collectively referred to as test compounds, shown in the table below) were assessed using Caco-2 cell line. The Caco-2 cells were maintained in DMEM (Dulbecco's Modified Eagle Medium) containing 10% fetal bovine serum, 1% non-essential amino acids, 2 mM L-glutamine, and 1% penicillin-streptomycin in an incubator at ˜37° C. in an atmosphere of 5% CO2 and about 90% relative humidity. The cell culture medium was changed three times weekly. Caco-2 cell monolayers were grown on polyethylene terephthalate filters using 24-well BD Falcon™ Cell Culture Insert Plates (0.33 cm^2 insert area, 1 μm pore size; BD BioSciences, Bedford, Mass.). The culture medium of the plate was changed every other day until used for the transport experiment (21-28 days post seeding).
(§2) The transport buffer (TM) was Hank's balanced salt solution (HBSS) with 10 mM HEPES and 25 mM glucose (pH 7.4) for dosing and TM with 4% bovine serum albumin for receiver (pH 7.4). The bi-directional permeability of the test compounds were tested at concentrations of 1, 10 and 100 μM was measured in triplicate with 2-hr incubation. The cell monolayer integrity was monitored with pre- and post-experimental trans-epithelial electrical resistance and post-experimental Lucifer Yellow (LY) permeability with 1 hr incubation.
(§3) The apparent permeability, recovery and efflux ratio values were calculated using the following equations:
(§4) where, • dCR/dt: The slope of the accumulative concentration in the receiver compartment versus time incubation (μM·s^−1) • C0hr: Donor concentration (μM) immediately after dosing • CD, final: Donor concentration (μM) at the end of incubation • S: Membrane surface area (cm^2) • VD: Volume of donor compartment (mL) • VR: Volume of receiver compartment (mL) • Papp-BLtoAP: Permeability from basolateral (BL) to apical (AP) transport

P-gp = assay: Caco-2 bi-directional permeability; assay type: in vitro ADME; conditions: human, Caco-2
Experimental: as §1, §2, §3, §4

[2] = test system: endogenous rat Aβ1-40 (Aβ40) in cortex; assay: Cortical Aβ40 in rats after oral dosing (Luminex-based immunodetection); assay type: in vivo; conditions: read-out: Change in rat cortex Aβ40
Experimental: The following procedures were used.
Male CD rats (˜100 g; Crl:CD(SD); Charles River Laboratories, Kingston, N.Y.) were group housed and acclimated to the vivarium for 5-7 days prior to use in a study. Compounds were formulated in 20% hydroxypropyl-β-cyclodextrin and administered orally with a dosing volume of 5 ml/kg for rats. Three h after drug administration, rats were euthanized with excess CO2. The brain was removed from the skull and immediately frozen on dry ice. All tissues were stored at −70° C. until Aβ quantification.
Ab585 was labeled with biotin (b-Ab585) by first dialyzing the antibody sample extensively versus PBS (pH 7.8) to remove impurities, followed by dilution to between 1 and 2 mg/mL protein concentration. EZ-Link Sulfo-NHS-LC-Biotin (Pierce) was dissolved in PBS (pH 7.8) at a concentration of 1 mg/mL immediately prior to use. Ab585 was labeled with EZ-Link Sulfo-NHS-LC-biotin using a 10:1 biotin:antibody ratio by incubation at room temperature for 1 hour. The labeling reaction was quenched by addition of 1.0 M glycine to a final concentration of 0.1 M followed by 10 minute incubation at room temperature. Glycine was removed by extensive dialysis versus PBS.
The antibody was coupled to the beads using the Bio-Plex Amine Coupling Kit (Bio-Rad) as per the manufacturer's recommendations.
Rat cortex Aβ40 levels were measured from guanidine HCl extracts of individual rat cortices using a Luminex-based immunodetection assay. Rat brains were thawed briefly at 37° C. and both mid- and hindbrain regions were removed. The remaining material, consisting primarily of cortex (˜800 mg) was carried through the guanidine extraction procedure. Cortices were added to a 2 ml BioPur tube (Eppendorf) along with a 6.35 mm chrome-coated steel ball and 1.0 ml of sucrose homogenization buffer (20 mM HEPES [pH 7.5], 50 mM KCl, 50 mM sucrose, 2 mM EDTA, 2 mM EGTA supplemented with complete protease inhibitors [Roche, EDTA-free]). Samples were then homogenized by agitation for 1.5 min at 30 cycles/sec in a MM300 tissue mixer (Retsch®). The resulting cortical homogenate was extracted with guanidine-HCl by mixing 67 μl of homogenate with 133 μl of 5 M Guanidine HCl, 50 mM Tris HCl (pH 8.0). To maximize the efficiency of Aβ extraction, samples were vortexed and then sonicated for 2 minutes in an ice bath using an Ultrasonics XL cup horn sonicator at a power setting of 8 (Heat Systems, Inc.). Insoluble material was removed by ultracentrifugation using a using a TLA-55 rotor in a TL-100 benchtop centrifuge (Beckman) at 100,000×g for 30 minutes. The resulting supernatant was then either diluted 1:10 in 5 M guanidine HCl, 0.05 M Tris HCl (pH 8.0) for protein analysis (BCA protein assay, Pierce Biochemicals) or assayed neat for Aβ40 levels. The Luminex rodent Aβ40 assay was performed as follows. First, 96 well filter binding plates (Millipore, catalogue # MSBVN12) were wetted with 100 μl of 1×LAβ40 buffer (0.05 M HEPES [pH 7.5], 0.2% BSA, 0.2% Tween-20, 0.15 M NaCl) by vacuum filtration on a Millipore 96-well manifold. The plate bottom was sealed and 100 μl of 1×LAβ40 buffer was added to each well followed by addition of 50 μl each of G2-10:COOH beads (1000 beads/well) and 50 μl b-Ab585 at 0.5 μg/ml in 1×LAβ40 buffer. Guanidine HCl was added to synthetic rodent Aβ40 standards in order to control for the effect of guanidine in brain extracts on the assay performance. Ten microliters of cortical extract, rodent Aβ40 standards or cortical extract from amyloid precursor protein knockout mice (to define background immunoreactivity) was added to each well. Plates were covered and incubated overnight at 4° C. Following the incubation, wells were cleared by vacuum and washed twice with 100 μl of 1×LAβ40 buffer on a Millipore manifold.

Caco-2 cell line = assay: Caco-2 bi-directional permeability; assay type: in vitro ADME; conditions: permeability apical to basolateral
Experimental: as §1, §2, §3, §4

[3] = target: soluble human BACE1 catalytic domain (Homo sapiens (Human), UniProt P56817); assay: BACE1 HTRF FRET assay; assay type: biochemical; conditions: Ki calculated from IC50 using the Cheng-Prusoff equation; read-out: BACE-1 Ki
[4] = target: purified human autoBACE-2 (Homo sapiens (Human), UniProt Q9Y5Z0); assay: BACE-2 assay (BACE-HTRF, time-resolved endpoint proteolysis); assay type: biochemical; conditions: Ki calculated from IC50 using the Cheng-Prusoff equation
Experimental: Inhibitor IC50s at purified human autoBACE-2 were determined in a time-resolved endpoint proteolysis assay that measures hydrolysis of the QSY7-[sequence]-Eu-amide FRET peptide substrate (BACE-HTRF assay). […] DMSO was present at 5% final concentration in the assay. Following laser excitation of sample wells at 320 nm, the fluorescence signal at 620 nm was collected for 400 ms following a 50 μs delay on a RUBYstar HTRF plate reader (BMG Labtechnologies). Raw RFU data was normalized to maximum (1.0 nM BACE/DMSO) and minimum (no enzyme/DMSO) RFU values. […] The Ki values were calculated from the IC50 using the Cheng-Prusoff equation.

[5] = Solution stability, Example B (50 mM pH 7.4 phosphate buffer, 25° C., LC/MS); assay type: physicochemical
Experimental: Stock solutions of the tested compounds were prepared by dissolving about 3 mg of each compound in 3 mL of acetonitrile. Standards for test compounds were prepared by diluting 1 mL of the stock solution with an additional 4 mL of acetonitrile. These standards were stored at 4° C. Samples were prepared by diluting 1 mL of the stock solution with 4 mL of 50 mM pH 7.4 phosphate buffer. These samples were stored at 25° C. in the absence of light. Standards and samples were analyzed by LC/MS initially and at day 1, day 4, and day 6.
Mobile phase A: 10 mM pH 5 ammonium acetate buffer:methanol (90:10)
Mobile phase B: 10 mM pH 5 ammonium acetate buffer:methanol (10:90)
Column: Zorbax SB-Phenyl 4.6×50 mm, 1.8 μm
Column temperature: 40° C.
Area % is the integration of peak from HPLC as reported by Waters Empower II software.
In the following study, the solution stability of the compound of Example 47 was measured and compared to that of Compound Y. The compound of Example 47 is an iminothiadiazine dioxide compound of the invention. Compound Y is the corresponding iminopyrimidinone compound. The structures of the compound of Example 47 and of Compound Y are shown below. Studies were performed in pH 7.4 buffer at 25° C.

[6] = Solution stability, Example A (pH 7.4 phosphate buffer/MeOH, LC/MS); assay type: physicochemical; conditions: for degredation: aqueous pH 7.4 buffer containing methanol
Experimental: A 1.05 mg/mL stock solution (5 mL) of Ex. 45 in MeOH was prepared. From the stock solution was taken out 1.25 mL and diluted to 25 mL with the addition of 23.75 mL of 10 mM phosphate buffer (pH 7.4)/MeOH (70/30 v/v). This new solution was split into three. One solution was incubated at 4° C., another incubated at 25° C. and the third incubated at 40° C. Each solution was analyzed by LC/MS after day 1, day 2 and day 6 and compared to a standard calibration curve for Ex. 45.
In the following study, the solution stability of the compound of Example 45 was measured and compared to that of Compound Z. The compound of Example 45 is an iminothiadiazine dioxide compound of the invention. Compound Z is the corresponding iminopyrimidinone compound. The structures of the compound of Example 45 and of Compound Z are shown below. Studies were performed in aqueous pH 7.4 buffer containing methanol at 4° C., 25° C. and 40° C.

[7] = rats, 3 h after a 10 mg/kg oral dose, vs vehicle cohort
[8] = Standard (in acetonitrile, stored at 4° C.)
[9] = pH 7.4, 40° C., last column without time heading

Sequence of soluble human BACE1 catalytic domain (P56817 75-416): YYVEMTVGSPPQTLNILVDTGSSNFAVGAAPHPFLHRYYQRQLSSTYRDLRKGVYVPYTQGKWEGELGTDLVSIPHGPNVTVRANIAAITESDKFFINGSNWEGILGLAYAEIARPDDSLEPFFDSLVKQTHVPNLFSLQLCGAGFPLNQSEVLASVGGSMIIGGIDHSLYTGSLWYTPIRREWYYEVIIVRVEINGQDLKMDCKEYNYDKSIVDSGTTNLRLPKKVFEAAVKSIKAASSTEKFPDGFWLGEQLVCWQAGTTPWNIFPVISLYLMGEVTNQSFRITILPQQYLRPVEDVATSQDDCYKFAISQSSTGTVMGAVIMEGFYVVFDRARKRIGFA
Sequence of purified human autoBACE-2 (Q9Y5Z0 63-473 limits assumed): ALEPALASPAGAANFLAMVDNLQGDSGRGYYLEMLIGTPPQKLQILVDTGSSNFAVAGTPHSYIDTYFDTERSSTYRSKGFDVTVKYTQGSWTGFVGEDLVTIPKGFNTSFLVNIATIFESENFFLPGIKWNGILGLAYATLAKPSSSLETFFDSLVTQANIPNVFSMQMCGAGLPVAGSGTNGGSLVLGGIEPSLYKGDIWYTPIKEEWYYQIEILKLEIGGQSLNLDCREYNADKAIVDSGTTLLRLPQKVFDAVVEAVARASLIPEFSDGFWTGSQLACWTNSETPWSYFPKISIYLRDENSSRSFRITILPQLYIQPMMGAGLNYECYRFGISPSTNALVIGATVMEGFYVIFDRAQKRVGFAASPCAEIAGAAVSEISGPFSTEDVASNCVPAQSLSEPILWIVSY

Papp A→B at 2 h [1]: 1.1 ×10⁻⁶ cm/s
efflux ratio at 2 h (P-gp): 12.9
Compound: Cc1cnc(C(=O)Nc2ccc(F)c([C@]3(C)CC(=O)N(C)C(=N)N3)c2)cn1 [Iminopyrimidinone 36]

Caco-2 AP→BL (Caco-2 cell line): 0 nm/s
Compound: CN1C(=N)N[C@](C)(c2cc(NC(=O)c3ccc(Cl)cn3)ccc2F)CC1=O [Iminopyrimidinone 34, reference compound]
change in vivo at 10 mg/kg ([2]; po, 3 h): -19%

Papp A→B at 2 h [1]: 13.6 ×10⁻⁶ cm/s
efflux ratio at 2 h (P-gp): 2.6
Compound: CN1C(=N)N[C@](C)(c2cc(-c3ccc(F)c(C#N)c3)cs2)CC1=O [Iminopyrimidinone 46]

Ki [3]: 3 nM
Ki [4]: 0.45 nM
efflux ratio at 2 h (P-gp): 2.1
Compound: Cc1ccc(C(=O)Nc2ccc(F)c([C@]3(C)CS(=O)(=O)N(C)C(=N)N3)c2)nc1 [Example 35]

Compound: CN1C(=N)N[C@](C)(c2cc(NC(=O)c3ccc(F)cn3)ccc2F)CS1(=O)=O [Example 25]
change in vivo at 10 mg/kg [2, 7]: -49%

Ki [3]: ~6.5 nM
Ki [4]: ~1 nM
Area %, Day 1 (Unknown peak, RRT 1.49) ([5]; Sample at pH 7.4, 25° C.): 1.44 Area %
Area %, Day 1 (parent peak, RRT 1.00) ([5]; Sample at pH 7.4, 25° C.): 98.56 Area %
Area %, Day 4 (Unknown peak, RRT 1.49) ([5]; Sample at pH 7.4, 25° C.): 1.47 Area %
Area %, Day 4 (parent peak, RRT 1.00) ([5]; Sample at pH 7.4, 25° C.): 98.53 Area %
Area %, Day 6 (Unknown peak, RRT 1.49) ([5]; Sample at pH 7.4, 25° C.): 1.47 Area %
Area %, Day 6 (parent peak, RRT 1.00) ([5]; Sample at pH 7.4, 25° C.): 98.53 Area %
Area %, Initial (Unknown peak, RRT 1.49) ([5]; Sample at pH 7.4, 25° C.): 1.45 Area %
Area %, Initial (parent peak, RRT 1.00) ([5]; Sample at pH 7.4, 25° C.): 98.55 Area %
Area %, Day 1 (Unknown peak, RRT 1.49) [5, 8]: 1.45 Area %
Area %, Day 1 (parent peak, RRT 1.00) [5, 8]: 98.55 Area %
Area %, Day 4 (Unknown peak, RRT 1.49) [5, 8]: 1.48 Area %
Area %, Day 4 (parent peak, RRT 1.00) [5, 8]: 98.52 Area %
Area %, Day 6 (Unknown peak, RRT 1.49) [5, 8]: 1.48 Area %
Area %, Day 6 (parent peak, RRT 1.00) [5, 8]: 98.52 Area %
Area %, Initial (Unknown peak, RRT 1.49) [5, 8]: 1.47 Area %
Area %, Initial (parent peak, RRT 1.00) [5, 8]: 98.53 Area %
hydrolysis product ([5]; pH 7.4 buffer at 25° C., after 6 days): 0%
Compound: CC#Cc1cncc(-c2csc([C@]3(C)CS(=O)(=O)N(C)C(=N)N3)c2)c1 [Example 47]

Papp A→B at 2 h [1]: 1.7 ×10⁻⁶ cm/s
efflux ratio at 2 h (P-gp): 11.3
Compound: CN1C(=N)N[C@](C)(c2cc(NC(=O)c3ccc(C(F)(F)F)cn3)ccc2F)CC1=O [Iminopyrimidinone 26]
change in vivo at 10 mg/kg [2, 7]: 0%

Ki [3]: 1.26 nM
Ki [4]: 2.46 nM
efflux ratio at 2 h (P-gp): 2.9
Compound: CN1C(=N)N[C@](C)(c2cc(NC(=O)c3ccc(C(F)(F)F)cn3)ccc2F)CS1(=O)=O [Example 26]
change in vivo at 10 mg/kg [2, 7]: -33%

degredation ([6]; 4° C., after 1 day): 18.3%
degredation ([6]; 25° C., time not stated): 53.87%
degredation ([6]; 40° C., after 1 day): 79.93%
Assay (Area %) ([6]; pH 7.4, 4° C., 1 day): 69.84 Area %
Assay (Area %), degradation symbol ([6]; pH 7.4, 4° C., 2 days): — ((—) stands for > 20% degradation)
Assay (Area %), degradation symbol ([6]; pH 7.4, 4° C., 6 days): — ((—) stands for > 20% degradation)
Assay (Area %) ([6]; pH 7.4, 4° C., Initial): 88.15 Area %
Assay (Area %), degradation symbol ([6]; pH 7.4, 4° C., last column without time heading): — ((—) stands for > 20% degradation)
Assay (Area %) ([6]; pH 7.4, 25° C., 1 day): 34.28 Area %
Assay (Area %), degradation symbol ([6]; pH 7.4, 25° C., 2 days): — ((—) stands for > 20% degradation)
Assay (Area %), degradation symbol ([6]; pH 7.4, 25° C., 6 days): — ((—) stands for > 20% degradation)
Assay (Area %) ([6]; pH 7.4, 25° C., Initial): 88.15 Area %
Assay (Area %), degradation symbol ([6]; pH 7.4, 25° C., last column without time heading): — ((—) stands for > 20% degradation)
Assay (Area %) ([6]; pH 7.4, 40° C., 1 day): 8.22 Area %
Assay (Area %), degradation symbol ([6]; pH 7.4, 40° C., 2 days): — ((—) stands for > 20% degradation)
Assay (Area %), degradation symbol ([6]; pH 7.4, 40° C., 6 days): — ((—) stands for > 20% degradation)
Assay (Area %) ([6]; pH 7.4, 40° C., Initial): 88.15 Area %
Assay (Area %), degradation symbol [6, 9]: — ((—) stands for > 20% degradation)
Compound: CN1C(=N)N[C@](C)(c2cc(-c3cccc(C#N)c3)cs2)CC1=O [Compound Z]

Ki [3]: 46 nM
Ki [4]: 8.23 nM
Compound: CN1C(=N)N[C@](C)(c2cc(-c3ccc(F)c(C#N)c3)cs2)CS1(=O)=O [Example 46]

Papp A→B at 2 h [1]: 12.6 ×10⁻⁶ cm/s
Compound: CN1C(=N)N[C@](C)(c2c(F)ccc(NC(=O)c3ccc(F)cn3)c2F)CS1(=O)=O [Example 173]
change in vivo at 10 mg/kg [2, 7]: -27%

Ki [3]: 0.949 nM
Ki [4]: 0.22 nM
efflux ratio at 2 h (P-gp): 3.1
Compound: CN1C(=N)N[C@](C)(c2cc(NC(=O)c3ccc(Cl)cn3)ccc2F)CS1(=O)=O [Example 34]
change in vivo at 10 mg/kg [2, 7]: -51%

Papp A→B at 2 h [1]: 2.5 ×10⁻⁶ cm/s
efflux ratio at 2 h (P-gp): 6.1
Compound: CN1C(=N)N[C@](C)(c2c(F)ccc(NC(=O)c3ccc(F)cn3)c2F)CC1=O [Iminopyrimidinone 173]
change in vivo at 10 mg/kg [2, 7]: -3%

Papp A→B at 2 h [1]: 17.4 ×10⁻⁶ cm/s
efflux ratio at 2 h (P-gp): 2.6
Compound: CN1C(=N)N[C@](C)(c2cc(-c3cccc(C#N)c3)cs2)CC1=O [Iminopyrimidinone 45]
change in vivo at 10 mg/kg [2, 7]: -5%

Ki [3]: 10 nM
Ki [4]: 4.85 nM
efflux ratio at 2 h (P-gp): 3.3
Compound: Cc1cnc(C(=O)Nc2ccc(F)c([C@]3(C)CS(=O)(=O)N(C)C(=N)N3)c2)cn1 [Example 36]
change in vivo at 10 mg/kg [2, 7]: -25%

Ki [3]: 25.6 nM
efflux ratio at 2 h (P-gp): 1.4
degredation ([6]; 4° C., after 6 days): 0.93%
degredation ([6]; 25° C., after 6 days): 7.4%
degredation ([6]; 40° C., after 6 days): 30.71%
Assay (Area %) ([6]; pH 7.4, 4° C., 1 day): 99.69 Area %
Assay (Area %) ([6]; pH 7.4, 4° C., 2 days): 99.04 Area %
Assay (Area %) ([6]; pH 7.4, 4° C., 6 days): 98.89 Area %
Assay (Area %) ([6]; pH 7.4, 4° C., Initial): 99.82 Area %
Assay (Area %) ([6]; pH 7.4, 25° C., 1 day): 98.45 Area %
Assay (Area %) ([6]; pH 7.4, 25° C., 2 days): 96.07 Area %
Assay (Area %) ([6]; pH 7.4, 25° C., 6 days): 92.43 Area %
Assay (Area %) ([6]; pH 7.4, 25° C., Initial): 99.82 Area %
Assay (Area %) ([6]; pH 7.4, 40° C., 1 day): 96.32 Area %
Assay (Area %) ([6]; pH 7.4, 40° C., 2 days): 89.70 Area %
Assay (Area %) ([6]; pH 7.4, 40° C., 6 days): 69.11 Area %
Assay (Area %) ([6]; pH 7.4, 40° C., Initial): 99.82 Area %
Assay (Area %), degradation symbol [6, 9]: — ((—) stands for > 20% degradation)
Compound: CN1C(=N)N[C@](C)(c2cc(-c3cccc(C#N)c3)cs2)CS1(=O)=O [Example 45]

Ki [3]: 1.05 nM
Ki [4]: 2.15 nM
efflux ratio at 2 h (P-gp): 2
Compound: COc1cnc(C(=O)Nc2cc(F)c(F)c([C@]3(C)CS(=O)(=O)N(C)C(=N)N3)c2)cn1 [Example 40di]
change in vivo at 10 mg/kg [2, 7]: -38%

Caco-2 AP→BL (Caco-2 cell line): 0 nm/s
Compound: Cc1ccc(C(=O)Nc2ccc(F)c([C@]3(C)CC(=O)N(C)C(=N)N3)c2)nc1 [Iminopyrimidinone 35]

Ki [3]: 1.64 nM
Ki [4]: 1.99 nM
efflux ratio at 2 h (P-gp): 1.8
Compound: COc1cnc(C(=O)Nc2ccc(F)c([C@]3(C)CS(=O)(=O)N(C)C(=N)N3)c2)cn1 [Example 40ai]
change in vivo at 10 mg/kg [2, 7]: -51%

Papp A→B at 2 h [1]: 6.5 ×10⁻⁶ cm/s
efflux ratio at 2 h (P-gp): 3.2
Compound: COc1cnc(C(=O)Nc2cc(F)c(F)c([C@]3(C)CC(=O)N(C)C(=N)N3)c2)cn1 [Iminopyrimidinone 40di]
change in vivo at 10 mg/kg [2, 7]: 5%

Papp A→B at 2 h [1]: 15.3 ×10⁻⁶ cm/s
Compound: CC#Cc1cncc(-c2cc(Cl)c([C@]3(C)CC(=O)N(C)C(=N)N3)s2)c1 [Iminopyrimidinone 52, reference compound]

Papp A→B at 2 h [1]: 2.2 ×10⁻⁶ cm/s
efflux ratio at 2 h (P-gp): 10.6
Compound: CN1C(=N)N[C@](C)(c2cc(NC(=O)c3ccc(F)cn3)ccc2F)CC1=O [Iminopyrimidinone 25]
change in vivo at 10 mg/kg [2, 7]: -11%
